# Source: publication PMC6409085, “Three odorant-binding proteins are involved in the behavioral response of Sogatella furcifera to rice plant volatiles” (PeerJ, 2019)
# Where “and” joins values, the source holds several entries; their conditions need not be identical. Identical values can stand only once.
# Tests used:
# S. furcifera adults = assay: Y-tube olfactometer behavioral trials; assay type: in vivo, Sogatella furcifera; conditions: odorant 50 µL/L vs hexane; adults
# Outline: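 Single S. furcifera adults (2 days post-emergence, starved 0.5 h) chose between odorant (100 µL of 50 µL/L on filter paper) and hexane control in a glass Y-tube, charcoal-filtered humidified air 300 mL/min per arm, 25 ± 1 °C, 50% RH. Choice scored if insect passed half an arm and stayed >1 min within 10 min; 45 insects per compound, chi-squared test.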
# SfurOBP1 = SfurOBP1 (Sogatella furcifera, UniProt V5T8N5); assay: biochemical; assay type: binding; conditions: for Fluorescence competitive binding assay, fluorescence intensity: OBP1, three replicate columns
# Outline: (§1)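 First, 2.0 µM protein in 50 mM Tris-HCl (pH 7.4) was titrated with 1-NPN to obtain K1-NPN. Then odorants (2–20 µM final) competed against 2.0 µM 1-NPN, with fluorescence (ex 337 nm) recorded after 2 min. Ki was computed from IC50 via Ki = IC50/(1 + [1-NPN]/K1-NPN).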
# SfurOBP3 = SfurOBP3 (Sogatella furcifera, UniProt V5T818); assay: biochemical; assay type: binding; conditions: for Fluorescence competitive binding assay, fluorescence intensity: OBP3, three replicate columns
# Outline: as §1
# SfurOBP11 = SfurOBP11 (Sogatella furcifera, UniProt V5T6E3); assay: biochemical; assay type: binding
# Outline: as §1
# SfurOBP2 = SfurOBP2 (Sogatella furcifera, UniProt V5T759); assay: biochemical; assay type: binding
# Outline: as §1
# Chain of SfurOBP1 (V5T8N5 entry or part of it): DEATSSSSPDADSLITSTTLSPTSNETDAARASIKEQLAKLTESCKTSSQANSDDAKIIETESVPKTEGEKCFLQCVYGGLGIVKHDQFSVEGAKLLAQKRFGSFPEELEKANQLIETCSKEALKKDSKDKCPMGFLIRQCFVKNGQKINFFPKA
# Chain of SfurOBP3 (V5T818 entry or part of it): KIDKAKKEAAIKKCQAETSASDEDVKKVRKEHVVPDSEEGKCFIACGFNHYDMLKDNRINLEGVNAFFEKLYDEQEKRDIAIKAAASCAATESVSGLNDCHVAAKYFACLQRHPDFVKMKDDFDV
# Chain of SfurOBP2 (V5T759 entry or part of it): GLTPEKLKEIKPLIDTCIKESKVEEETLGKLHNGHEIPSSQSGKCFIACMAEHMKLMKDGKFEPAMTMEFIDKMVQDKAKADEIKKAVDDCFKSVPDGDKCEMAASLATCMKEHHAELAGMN
# Chain of SfurOBP11 (V5T6E3 entry or part of it): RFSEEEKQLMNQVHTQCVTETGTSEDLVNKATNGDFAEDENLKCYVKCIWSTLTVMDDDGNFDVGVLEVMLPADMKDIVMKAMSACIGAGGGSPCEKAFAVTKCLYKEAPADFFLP
structure (smiles),measurement,setting,value
CC/C=C\CCO [(Z)-3-hexenol],number of insects choosing hexane arm,S. furcifera adults,13
same,number of insects choosing volatilies arm,S. furcifera adults,13
same,number of insects failed (no choice),S. furcifera adults,14
same,IC50,SfurOBP1,> 20 µM
same,"Fluorescence competitive binding assay, fluorescence intensity",SfurOBP1; ligand concentration 2 (μM),6275 and 5762 and 6097
same,"Fluorescence competitive binding assay, fluorescence intensity",SfurOBP1; ligand concentration 4 (μM),7853 and 8652 and 8403
same,"Fluorescence competitive binding assay, fluorescence intensity",SfurOBP1; ligand concentration 6 (μM),6992 and 6382 and 6355
same,"Fluorescence competitive binding assay, fluorescence intensity",SfurOBP1; ligand concentration 8 (μM),6419 and 7196 and 6808
same,"Fluorescence competitive binding assay, fluorescence intensity",SfurOBP1; ligand concentration 10 (μM),6561 and 6490 and 6439
same,"Fluorescence competitive binding assay, fluorescence intensity",SfurOBP1; ligand concentration 12 (μM),6242 and 6220 and 5811
same,"Fluorescence competitive binding assay, fluorescence intensity",SfurOBP1; ligand concentration 14 (μM),5437 and 6035 and 6831
same,"Fluorescence competitive binding assay, fluorescence intensity",SfurOBP1; ligand concentration 16 (μM),6974 and 6042 and 5510
same,"Fluorescence competitive binding assay, fluorescence intensity",SfurOBP1; ligand concentration 18 (μM),6021 and 6159 and 6506
same,"Fluorescence competitive binding assay, fluorescence intensity",SfurOBP1; ligand concentration 20 (μM),6648 and 5435 and 5963
same,IC50,SfurOBP3,> 20 µM
same,"Fluorescence competitive binding assay, fluorescence intensity",SfurOBP3; ligand concentration 2,48626 and 49734 and 49512
same,"Fluorescence competitive binding assay, fluorescence intensity",SfurOBP3; ligand concentration 4,45649 and 45958 and 42870
same,"Fluorescence competitive binding assay, fluorescence intensity",SfurOBP3; ligand concentration 6,41915 and 48260 and 45013
same,"Fluorescence competitive binding assay, fluorescence intensity",SfurOBP3; ligand concentration 8,45442 and 45656 and 45548
same,"Fluorescence competitive binding assay, fluorescence intensity",SfurOBP3; ligand concentration 10,40904 and 43831 and 42892
same,"Fluorescence competitive binding assay, fluorescence intensity",SfurOBP3; ligand concentration 12,41218 and 40601 and 40113
same,"Fluorescence competitive binding assay, fluorescence intensity",SfurOBP3; ligand concentration 14,34957 and 35609 and 37985
same,"Fluorescence competitive binding assay, fluorescence intensity",SfurOBP3; ligand concentration 16,33728 and 34170 and 34618
same,"Fluorescence competitive binding assay, fluorescence intensity",SfurOBP3; ligand concentration 18,37828 and 32491 and 33581
same,"Fluorescence competitive binding assay, fluorescence intensity",SfurOBP3; ligand concentration 20,33910 and 32414 and 29949
same,IC50,SfurOBP11,19.7 µM
same,"Fluorescence intensity, fluorescence competitive binding assay, OBP11","SfurOBP11; ligand concentration 2, replicate 1",23102
same,"Fluorescence intensity, fluorescence competitive binding assay, OBP11","SfurOBP11; ligand concentration 2, replicate 2",23122
same,"Fluorescence intensity, fluorescence competitive binding assay, OBP11","SfurOBP11; ligand concentration 2, replicate 3",23081
same,"Fluorescence intensity, fluorescence competitive binding assay, OBP11","SfurOBP11; ligand concentration 4, replicate 1",21959
same,"Fluorescence intensity, fluorescence competitive binding assay, OBP11","SfurOBP11; ligand concentration 4, replicate 2",22135
same,"Fluorescence intensity, fluorescence competitive binding assay, OBP11","SfurOBP11; ligand concentration 4, replicate 3",21783
same,"Fluorescence intensity, fluorescence competitive binding assay, OBP11","SfurOBP11; ligand concentration 6, replicate 1",21447
same,"Fluorescence intensity, fluorescence competitive binding assay, OBP11","SfurOBP11; ligand concentration 6, replicate 2",20794
same,"Fluorescence intensity, fluorescence competitive binding assay, OBP11","SfurOBP11; ligand concentration 6, replicate 3",21118
same,"Fluorescence intensity, fluorescence competitive binding assay, OBP11","SfurOBP11; ligand concentration 8, replicate 1",18781
same,"Fluorescence intensity, fluorescence competitive binding assay, OBP11","SfurOBP11; ligand concentration 8, replicate 2",21016
same,"Fluorescence intensity, fluorescence competitive binding assay, OBP11","SfurOBP11; ligand concentration 8, replicate 3",21554
same,"Fluorescence intensity, fluorescence competitive binding assay, OBP11","SfurOBP11; ligand concentration 10, replicate 1",18621
same,"Fluorescence intensity, fluorescence competitive binding assay, OBP11","SfurOBP11; ligand concentration 10, replicate 2",21154
same,"Fluorescence intensity, fluorescence competitive binding assay, OBP11","SfurOBP11; ligand concentration 10, replicate 3",19973
same,"Fluorescence intensity, fluorescence competitive binding assay, OBP11","SfurOBP11; ligand concentration 12, replicate 1",17455
same,"Fluorescence intensity, fluorescence competitive binding assay, OBP11","SfurOBP11; ligand concentration 12, replicate 2",20348
same,"Fluorescence intensity, fluorescence competitive binding assay, OBP11","SfurOBP11; ligand concentration 12, replicate 3",19925
same,"Fluorescence intensity, fluorescence competitive binding assay, OBP11","SfurOBP11; ligand concentration 14, replicate 1",17235
same,"Fluorescence intensity, fluorescence competitive binding assay, OBP11","SfurOBP11; ligand concentration 14, replicate 2",18458
same,"Fluorescence intensity, fluorescence competitive binding assay, OBP11","SfurOBP11; ligand concentration 14, replicate 3",18680
same,"Fluorescence intensity, fluorescence competitive binding assay, OBP11","SfurOBP11; ligand concentration 16, replicate 1",16257
same,"Fluorescence intensity, fluorescence competitive binding assay, OBP11","SfurOBP11; ligand concentration 16, replicate 2",15961
same,"Fluorescence intensity, fluorescence competitive binding assay, OBP11","SfurOBP11; ligand concentration 16, replicate 3",16778
same,"Fluorescence intensity, fluorescence competitive binding assay, OBP11","SfurOBP11; ligand concentration 18, replicate 1",15893
same,"Fluorescence intensity, fluorescence competitive binding assay, OBP11","SfurOBP11; ligand concentration 18, replicate 2",16090
same,"Fluorescence intensity, fluorescence competitive binding assay, OBP11","SfurOBP11; ligand concentration 18, replicate 3",15799
same,"Fluorescence intensity, fluorescence competitive binding assay, OBP11","SfurOBP11; ligand concentration 20, replicate 1",15616
same,"Fluorescence intensity, fluorescence competitive binding assay, OBP11","SfurOBP11; ligand concentration 20, replicate 2",15707
same,"Fluorescence intensity, fluorescence competitive binding assay, OBP11","SfurOBP11; ligand concentration 20, replicate 3",14975
same,IC50,SfurOBP2,> 20 µM
same,"Fluorescence competitive binding assay, OBP2 (raw fluorescence reading)","SfurOBP2; ligand concentration 2 (unit not given), replicate column 1 of 3",19770
same,"Fluorescence competitive binding assay, OBP2 (raw fluorescence reading)","SfurOBP2; ligand concentration 2 (unit not given), replicate column 2 of 3",19248
same,"Fluorescence competitive binding assay, OBP2 (raw fluorescence reading)","SfurOBP2; ligand concentration 2 (unit not given), replicate column 3 of 3",18506
same,"Fluorescence competitive binding assay, OBP2 (raw fluorescence reading)","SfurOBP2; ligand concentration 4 (unit not given), replicate column 1 of 3",19551
same,"Fluorescence competitive binding assay, OBP2 (raw fluorescence reading)","SfurOBP2; ligand concentration 4 (unit not given), replicate column 2 of 3",19781
same,"Fluorescence competitive binding assay, OBP2 (raw fluorescence reading)","SfurOBP2; ligand concentration 4 (unit not given), replicate column 3 of 3",18404
same,"Fluorescence competitive binding assay, OBP2 (raw fluorescence reading)","SfurOBP2; ligand concentration 6 (unit not given), replicate column 1 of 3",19561
same,"Fluorescence competitive binding assay, OBP2 (raw fluorescence reading)","SfurOBP2; ligand concentration 6 (unit not given), replicate column 2 of 3",18769
same,"Fluorescence competitive binding assay, OBP2 (raw fluorescence reading)","SfurOBP2; ligand concentration 6 (unit not given), replicate column 3 of 3",17857
same,"Fluorescence competitive binding assay, OBP2 (raw fluorescence reading)","SfurOBP2; ligand concentration 8 (unit not given), replicate column 1 of 3",18896
same,"Fluorescence competitive binding assay, OBP2 (raw fluorescence reading)","SfurOBP2; ligand concentration 8 (unit not given), replicate column 2 of 3",18816
same,"Fluorescence competitive binding assay, OBP2 (raw fluorescence reading)","SfurOBP2; ligand concentration 8 (unit not given), replicate column 3 of 3",16878
same,"Fluorescence competitive binding assay, OBP2 (raw fluorescence reading)","SfurOBP2; ligand concentration 10 (unit not given), replicate column 1 of 3",17416
same,"Fluorescence competitive binding assay, OBP2 (raw fluorescence reading)","SfurOBP2; ligand concentration 10 (unit not given), replicate column 2 of 3",17439
same,"Fluorescence competitive binding assay, OBP2 (raw fluorescence reading)","SfurOBP2; ligand concentration 10 (unit not given), replicate column 3 of 3",16747
same,"Fluorescence competitive binding assay, OBP2 (raw fluorescence reading)","SfurOBP2; ligand concentration 12 (unit not given), replicate column 1 of 3",16106
same,"Fluorescence competitive binding assay, OBP2 (raw fluorescence reading)","SfurOBP2; ligand concentration 12 (unit not given), replicate column 2 of 3",16534
same,"Fluorescence competitive binding assay, OBP2 (raw fluorescence reading)","SfurOBP2; ligand concentration 12 (unit not given), replicate column 3 of 3",16305
same,"Fluorescence competitive binding assay, OBP2 (raw fluorescence reading)","SfurOBP2; ligand concentration 14 (unit not given), replicate column 1 of 3",14820
same,"Fluorescence competitive binding assay, OBP2 (raw fluorescence reading)","SfurOBP2; ligand concentration 14 (unit not given), replicate column 2 of 3",14819
same,"Fluorescence competitive binding assay, OBP2 (raw fluorescence reading)","SfurOBP2; ligand concentration 14 (unit not given), replicate column 3 of 3",14820
same,"Fluorescence competitive binding assay, OBP2 (raw fluorescence reading)","SfurOBP2; ligand concentration 16 (unit not given), replicate column 1 of 3",13168
same,"Fluorescence competitive binding assay, OBP2 (raw fluorescence reading)","SfurOBP2; ligand concentration 16 (unit not given), replicate column 2 of 3",12294
same,"Fluorescence competitive binding assay, OBP2 (raw fluorescence reading)","SfurOBP2; ligand concentration 16 (unit not given), replicate column 3 of 3",13106
same,"Fluorescence competitive binding assay, OBP2 (raw fluorescence reading)","SfurOBP2; ligand concentration 18 (unit not given), replicate column 1 of 3",12788
same,"Fluorescence competitive binding assay, OBP2 (raw fluorescence reading)","SfurOBP2; ligand concentration 18 (unit not given), replicate column 2 of 3",12466
same,"Fluorescence competitive binding assay, OBP2 (raw fluorescence reading)","SfurOBP2; ligand concentration 18 (unit not given), replicate column 3 of 3",12554
same,"Fluorescence competitive binding assay, OBP2 (raw fluorescence reading)","SfurOBP2; ligand concentration 20 (unit not given), replicate column 1 of 3",12993
same,"Fluorescence competitive binding assay, OBP2 (raw fluorescence reading)","SfurOBP2; ligand concentration 20 (unit not given), replicate column 2 of 3",12815
same,"Fluorescence competitive binding assay, OBP2 (raw fluorescence reading)","SfurOBP2; ligand concentration 20 (unit not given), replicate column 3 of 3",12410
